Paper PMC8550792, “Evolution of kinase polypharmacology across HSP90 drug discovery” (Cell Chemical Biology, 2021)

How the values were obtained:
Test in all cases: biochemical
Format in all cases: biochemical
382 unique human kinases [1] = target: T1, 382 unique human kinases (Homo sapiens, UniProt P00533, G719S); conditions: EGFR (G719S), 10 uM; for remaining activity at 10 µM: read-out: % Enzyme Activity (relative to DMSO controls)
T1 construct: purchased Reaction Biology (HotSpot contract assay)

382 unique human kinases [2] = target: T2, 382 unique human kinases (Homo sapiens, UniProt Q9Y6E0); conditions: MST3/STK24, [ATP] 20 µM, compound 10 uM; for remaining activity at 10 µM: read-out: % Enzyme Activity (relative to DMSO controls)
T2 construct: purchased Reaction Biology (HotSpot contract assay)
T2 sequence (Q9Y6E0 whole entry): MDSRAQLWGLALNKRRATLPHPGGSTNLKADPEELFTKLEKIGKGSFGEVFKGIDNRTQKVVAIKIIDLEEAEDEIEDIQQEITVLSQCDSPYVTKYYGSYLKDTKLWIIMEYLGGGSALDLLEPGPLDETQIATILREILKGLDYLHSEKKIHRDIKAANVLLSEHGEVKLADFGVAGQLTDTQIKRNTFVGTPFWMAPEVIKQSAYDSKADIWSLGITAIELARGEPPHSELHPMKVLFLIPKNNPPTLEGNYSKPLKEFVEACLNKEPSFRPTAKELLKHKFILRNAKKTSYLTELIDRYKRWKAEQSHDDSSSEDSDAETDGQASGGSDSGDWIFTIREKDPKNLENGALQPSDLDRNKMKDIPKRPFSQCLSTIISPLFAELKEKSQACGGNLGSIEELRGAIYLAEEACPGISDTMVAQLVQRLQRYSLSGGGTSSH

382 unique human kinases [3] = target: T3, 382 unique human kinases (Homo sapiens, UniProt Q86UX6); conditions: STK32C/YANK3, 10 uM; for remaining activity at 10 µM: read-out: % Enzyme Activity (relative to DMSO controls)
T3 construct: purchased Reaction Biology (HotSpot contract assay)
T3 sequence (Q86UX6 whole entry): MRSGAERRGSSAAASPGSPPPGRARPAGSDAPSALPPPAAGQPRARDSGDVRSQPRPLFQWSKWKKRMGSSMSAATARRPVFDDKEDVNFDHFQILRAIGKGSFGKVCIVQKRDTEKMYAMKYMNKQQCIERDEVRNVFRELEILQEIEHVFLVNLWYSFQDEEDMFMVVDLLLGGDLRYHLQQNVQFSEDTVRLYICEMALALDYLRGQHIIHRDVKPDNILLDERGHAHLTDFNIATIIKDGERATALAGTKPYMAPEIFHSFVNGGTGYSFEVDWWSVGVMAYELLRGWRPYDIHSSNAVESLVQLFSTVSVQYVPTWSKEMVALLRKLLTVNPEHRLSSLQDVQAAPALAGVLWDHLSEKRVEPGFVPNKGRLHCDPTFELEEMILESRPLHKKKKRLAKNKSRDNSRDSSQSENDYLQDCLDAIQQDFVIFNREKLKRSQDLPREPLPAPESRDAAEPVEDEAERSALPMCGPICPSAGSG

382 unique human kinases [4] = target: T4, 382 unique human kinases (Homo sapiens, UniProt Q8IWQ3); conditions: kinase BRSK2, compound 10 uM; for remaining activity at 10 µM: read-out: % Enzyme Activity (relative to DMSO controls)
T4 construct: purchased Reaction Biology (HotSpot contract assay)
T4 sequence (Q8IWQ3 1-736): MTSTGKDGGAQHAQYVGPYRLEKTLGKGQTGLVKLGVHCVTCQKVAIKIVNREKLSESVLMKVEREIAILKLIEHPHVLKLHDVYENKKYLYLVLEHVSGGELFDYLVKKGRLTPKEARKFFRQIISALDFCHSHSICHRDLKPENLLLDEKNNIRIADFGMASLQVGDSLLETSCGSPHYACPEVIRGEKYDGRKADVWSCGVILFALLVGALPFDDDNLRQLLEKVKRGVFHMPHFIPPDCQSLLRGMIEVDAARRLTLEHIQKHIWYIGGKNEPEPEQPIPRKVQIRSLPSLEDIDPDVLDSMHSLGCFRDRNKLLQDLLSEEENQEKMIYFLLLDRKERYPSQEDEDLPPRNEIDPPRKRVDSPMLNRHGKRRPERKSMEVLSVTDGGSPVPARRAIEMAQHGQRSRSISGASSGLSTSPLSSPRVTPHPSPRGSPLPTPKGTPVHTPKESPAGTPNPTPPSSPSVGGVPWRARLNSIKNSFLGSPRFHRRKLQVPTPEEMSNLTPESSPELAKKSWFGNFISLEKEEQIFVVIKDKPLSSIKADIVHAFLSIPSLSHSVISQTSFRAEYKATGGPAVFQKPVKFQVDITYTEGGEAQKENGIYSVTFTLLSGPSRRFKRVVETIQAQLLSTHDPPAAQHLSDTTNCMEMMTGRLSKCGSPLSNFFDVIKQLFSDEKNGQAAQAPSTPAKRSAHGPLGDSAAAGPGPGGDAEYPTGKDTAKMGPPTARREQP

382 unique human kinases [5] = target: T5, 382 unique human kinases (Homo sapiens, UniProt Q8WXR4); conditions: kinase MYO3b, compound 10 uM; for remaining activity at 10 µM: read-out: % Enzyme Activity (relative to DMSO controls)
T5 construct: purchased Reaction Biology (HotSpot contract assay)
T5 sequence (Q8WXR4 1-1341): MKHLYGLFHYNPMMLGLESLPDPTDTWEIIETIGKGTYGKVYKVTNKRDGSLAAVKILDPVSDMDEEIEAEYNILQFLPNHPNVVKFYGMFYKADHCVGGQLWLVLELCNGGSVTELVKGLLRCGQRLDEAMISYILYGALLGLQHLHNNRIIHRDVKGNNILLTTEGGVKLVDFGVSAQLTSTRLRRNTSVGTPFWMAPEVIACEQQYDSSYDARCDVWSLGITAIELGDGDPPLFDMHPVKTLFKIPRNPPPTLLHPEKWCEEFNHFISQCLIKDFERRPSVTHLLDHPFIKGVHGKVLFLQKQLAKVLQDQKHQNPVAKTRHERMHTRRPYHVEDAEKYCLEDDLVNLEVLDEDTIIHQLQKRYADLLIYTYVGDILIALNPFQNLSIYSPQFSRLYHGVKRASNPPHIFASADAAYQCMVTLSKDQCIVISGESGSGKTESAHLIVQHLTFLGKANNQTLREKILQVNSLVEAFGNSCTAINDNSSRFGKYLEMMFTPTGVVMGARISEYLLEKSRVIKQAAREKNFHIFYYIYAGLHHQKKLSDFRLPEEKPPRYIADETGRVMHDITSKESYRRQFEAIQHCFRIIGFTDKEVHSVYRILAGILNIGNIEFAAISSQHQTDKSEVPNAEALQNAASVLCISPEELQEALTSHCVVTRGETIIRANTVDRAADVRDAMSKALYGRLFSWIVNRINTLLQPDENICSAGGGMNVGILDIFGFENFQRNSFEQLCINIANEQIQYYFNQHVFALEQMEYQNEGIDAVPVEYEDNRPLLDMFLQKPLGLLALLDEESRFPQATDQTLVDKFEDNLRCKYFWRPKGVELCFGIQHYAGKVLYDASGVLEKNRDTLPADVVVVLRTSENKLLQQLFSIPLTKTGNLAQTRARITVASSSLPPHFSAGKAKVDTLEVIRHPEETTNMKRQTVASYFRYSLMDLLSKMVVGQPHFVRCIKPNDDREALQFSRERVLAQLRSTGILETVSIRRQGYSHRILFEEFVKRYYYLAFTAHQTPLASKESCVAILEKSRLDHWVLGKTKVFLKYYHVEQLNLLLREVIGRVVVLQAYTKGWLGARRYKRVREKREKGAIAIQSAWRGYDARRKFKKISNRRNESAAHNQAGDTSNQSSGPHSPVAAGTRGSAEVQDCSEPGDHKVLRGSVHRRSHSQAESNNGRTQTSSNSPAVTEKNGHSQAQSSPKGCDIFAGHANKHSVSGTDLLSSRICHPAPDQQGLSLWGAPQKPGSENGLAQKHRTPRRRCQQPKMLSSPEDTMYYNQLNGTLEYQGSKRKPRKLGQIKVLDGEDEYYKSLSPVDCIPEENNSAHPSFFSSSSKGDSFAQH

382 unique human kinases [6] = target: T6, 382 unique human kinases (Homo sapiens, UniProt Q96PF2); conditions: kinase TSSK2, compound 10 uM; for remaining activity at 10 µM: read-out: % Enzyme Activity (relative to DMSO controls)
T6 construct: purchased Reaction Biology (HotSpot contract assay)
T6 sequence (Q96PF2 1-358): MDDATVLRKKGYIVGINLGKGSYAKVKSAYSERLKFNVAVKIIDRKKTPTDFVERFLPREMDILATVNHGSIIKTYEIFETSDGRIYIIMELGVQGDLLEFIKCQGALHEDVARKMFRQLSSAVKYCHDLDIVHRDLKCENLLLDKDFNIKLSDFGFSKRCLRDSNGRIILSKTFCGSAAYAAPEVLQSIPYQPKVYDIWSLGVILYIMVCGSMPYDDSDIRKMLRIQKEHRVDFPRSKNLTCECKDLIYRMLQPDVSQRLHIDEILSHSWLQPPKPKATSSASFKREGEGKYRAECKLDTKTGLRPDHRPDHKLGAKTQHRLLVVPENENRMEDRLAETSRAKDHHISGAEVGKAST

| SMILES | % Enzyme Activity (relative to DMSO controls) (382 unique human kinases [1]) [%] | remaining activity at 10 µM (382 unique human kinases [1]) [%] | % Enzyme Activity (relative to DMSO controls) (382 unique human kinases [2]) [%] | remaining activity at 10 µM (382 unique human kinases [2]) [%] | remaining activity at 10 µM (382 unique human kinases [3]) [%] | remaining activity at 10 µM (382 unique human kinases [4]) [%] | remaining activity at 10 µM (382 unique human kinases [5]) [%] | remaining activity at 10 µM (382 unique human kinases [6]) [%] | % Enzyme Activity (relative to DMSO controls) (382 unique human kinases [3]) [%] | % Enzyme Activity (relative to DMSO controls) (382 unique human kinases [4]) [%] | % Enzyme Activity (relative to DMSO controls) (382 unique human kinases [5]) [%] | % Enzyme Activity (relative to DMSO controls) (382 unique human kinases [6]) [%] |
| --- | --- | --- | --- | --- | --- | --- | --- | --- | --- | --- | --- | --- |
| CCNC(=O)c1noc(-c2cc(C(C)C)c(O)cc2O)c1-c1ccc(CN2CCOCC2)cc1 [Luminespib] | 98.84 | 99.4 | 58.15 | 60 |  |  |  |  |  |  |  |  |
| CC(C)c1cc(-c2n[nH]c(=O)n2-c2ccc3c(ccn3C)c2)c(O)cc1O [Ganetespib (STA9090)] |  |  |  |  | 109 | 82.8 | 88.2 | 90.3 |  |  |  |  |
| CCNC(=O)c1noc(-c2cc(C(C)C)c(O)cc2O)c1-c1ccc(CN2CCOCC2)cc1 [Luminespib (AUY-922)] |  |  |  |  | 69.9 | 83.9 | 113 | 102 | 69.42 | 83.62 | 111.45 | 101.80 |
| CC(C)c1cc(-c2n[nH]c(=O)n2-c2ccc3c(ccn3C)c2)c(O)cc1O [Ganetespib] |  | 99.7 |  | 72.1 |  |  |  |  |  |  |  |  |
